# Publication PMC12844705, “Multitarget Mechanisms of (‒)‒Epigallocatechin-3-Gallate Against MRSA: From SraP L-Lectin Targeting to Synergistic Antibiotic Effects” (Pathogens, 2026)
# Target: T1, Serine-rich adhesin for platelets (SraP), L-Lectin module (Staphylococcus aureus, UniProt Q8NUJ3)
# T1 construct: SraP L-Lectin domain (L-Lectin of MW2)
# Assay: SPR (Biacore T200, protein amine-coupled on CM5 chip, kinetic fit)
# Type: binding
# T1 sequence (Q8NUJ3 245-480): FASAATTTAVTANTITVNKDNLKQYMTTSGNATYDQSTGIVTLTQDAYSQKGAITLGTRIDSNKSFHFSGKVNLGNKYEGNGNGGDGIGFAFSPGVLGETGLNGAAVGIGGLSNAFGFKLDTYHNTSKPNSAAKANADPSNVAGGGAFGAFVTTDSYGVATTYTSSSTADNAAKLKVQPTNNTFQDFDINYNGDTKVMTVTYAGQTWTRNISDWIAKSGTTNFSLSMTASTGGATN
smiles,measurement,value
O=C(O[C@@H]1Cc2c(O)cc(O)cc2O[C@@H]1c1cc(O)c(O)c(O)c1)c1cc(O)c(O)c(O)c1 [EGCG],Kd,4 µM
